Source: the NIST ThermoML archive (doi:10.1016/j.jct.2017.06.020)

Tests used:
[1] = 298.15 K; 101.3 kPa; Liquid; Vibrating tube method
[2] = refractive index (Na D-line) (dimensionless); conditions: 298.15 K; 101.3 kPa; Liquid; Standard Abbe refractometry
[3] = relative permittivity at various frequencies (dimensionless); conditions: 298.15 K; 101.3 kPa; Liquid; Frequency=0.01 MHz; Coaxial cylinder capacitor
[4] = refractive index (Na D-line) (dimensionless); xn = mol fraction of the nth substance listed; conditions: 298.15 K, 101.3 kPa, Liquid, Standard Abbe refractometry
[5] = relative permittivity at various frequencies (dimensionless); xn = mol fraction of the nth substance listed; conditions: 298.15 K, 101.3 kPa, Liquid, Frequency=0.01 MHz, Coaxial cylinder capacitor

CC(C)CCO [3-methylbutan-1-ol]
Conditions	mass density [kg/m3]	refractive index	relative permittivity
[1]	807.16	–	–
[2]	–	1.4048	–
[3]	–	–	14.96

CCC(C)=O [butanone]
Conditions	mass density [kg/m3]	refractive index	relative permittivity
[1]	799.75	–	–
[2]	–	1.376	–
[3]	–	–	18.38

CC(C)=O [acetone]
Conditions	mass density [kg/m3]	refractive index	relative permittivity
[1]	784.42	–	–
[2]	–	1.3564	–
[3]	–	–	20.69

CC(=O)c1ccccc1 [acetophenone] + CC(C)CCO
Conditions	refractive index, [4]	relative permittivity, [5]
x1 = 0.101	1.418	14.65
x1 = 0.199	1.4303	14.47
x1 = 0.301	1.4451	14.39
x1 = 0.4	1.4573	14.45
x1 = 0.5	1.4709	14.66
x1 = 0.6	1.4817	14.97
x1 = 0.699	1.4935	15.44
x1 = 0.8	1.5063	16.03
x1 = 0.9	1.5187	16.71
x1 = 1	1.5318	17.51

C[S+](C)[O-] [dimethyl sulfoxide]
Conditions	mass density [kg/m3]	refractive index	relative permittivity
[1]	1096.07	–	–
[2]	–	1.4767	–
[3]	–	–	46.71

CCC(C)=O [butanone] + CCCCCO
Conditions	refractive index, [4]	relative permittivity, [5]
x1 = 0.1	1.4053	14.81
x1 = 0.2	1.4023	14.68
x1 = 0.3	1.3988	14.63
x1 = 0.4	1.3959	14.73
x1 = 0.5	1.393	14.96
x1 = 0.599	1.3898	15.35
x1 = 0.7	1.3859	15.9
x1 = 0.8	1.3826	16.56
x1 = 0.9	1.3796	17.44
x1 = 1	1.376	18.38

CCCCCO [pentan-1-ol] + CC(C)=O
Conditions	refractive index, [4]	relative permittivity, [5]
x2 = 0	1.4082	15.12
x2 = 0.1	1.4049	14.94
x2 = 0.2	1.4015	14.91
x2 = 0.301	1.397	15.01
x2 = 0.399	1.3926	15.28
x2 = 0.5	1.3882	15.73
x2 = 0.601	1.3828	16.35
x2 = 0.701	1.3771	17.21
x2 = 0.8	1.3706	18.21
x2 = 0.9	1.3639	19.36

C[S+](C)[O-] [dimethyl sulfoxide] + CCCCCO
x1 = 1
Conditions	refractive index	relative permittivity
[4]	1.4767	–
[5]	–	46.71

CCC(C)=O [butanone] + CC(C)CCO
x1 = 1
Conditions	refractive index	relative permittivity
[4]	1.376	–
[5]	–	18.38

CC(C)CCO [3-methylbutan-1-ol] + CC(=O)c1ccccc1
x2 = 0
Conditions	refractive index	relative permittivity
[4]	1.4048	–
[5]	–	14.96

CC(C)=O [acetone] + CCCCCO
x1 = 1
Conditions	refractive index	relative permittivity
[4]	1.3564	–
[5]	–	20.69

CC(=O)c1ccccc1 [acetophenone] + CCCCCO
Conditions	refractive index, [4]	relative permittivity, [5]
x1 = 0.1	1.4212	14.86
x1 = 0.2	1.4346	14.71
x1 = 0.3	1.4468	14.66
x1 = 0.4	1.4598	14.75
x1 = 0.501	1.4726	14.94
x1 = 0.6	1.4859	15.25
x1 = 0.7	1.4968	15.65
x1 = 0.8	1.5092	16.19
x1 = 0.9	1.5213	16.83
x1 = 1	1.5318	17.51

CC(C)CCO [3-methylbutan-1-ol] + CCC(C)=O
Conditions	refractive index, [4]	relative permittivity, [5]
x2 = 0	1.4048	14.96
x2 = 0.099	1.4024	14.59
x2 = 0.2	1.4001	14.38
x2 = 0.3	1.3972	14.33
x2 = 0.4	1.3948	14.44
x2 = 0.499	1.392	14.69
x2 = 0.599	1.3891	15.12
x2 = 0.7	1.3863	15.7
x2 = 0.8	1.3829	16.43
x2 = 0.9	1.38	17.33

CCCCCO [pentan-1-ol] + CCC(C)=O
x2 = 0
Conditions	refractive index	relative permittivity
[4]	1.4082	–
[5]	–	15.12

CC(C)CCO [3-methylbutan-1-ol] + CC(C)=O
Conditions	refractive index, [4]	relative permittivity, [5]
x2 = 0	1.4048	14.96
x2 = 0.1	1.4016	14.72
x2 = 0.2	1.3981	14.62
x2 = 0.3	1.3936	14.71
x2 = 0.4	1.3893	14.96
x2 = 0.5	1.3854	15.44
x2 = 0.6	1.3799	16.08
x2 = 0.7	1.3751	16.95
x2 = 0.8	1.3701	17.99
x2 = 0.9	1.3634	19.21

CC(C)=O [acetone] + CC(C)CCO
x1 = 1
Conditions	refractive index	relative permittivity
[4]	1.3564	–
[5]	–	20.69

CC(=O)c1ccccc1 [acetophenone]
Conditions	mass density [kg/m3]	refractive index	relative permittivity
[1]	1022.77	–	–
[2]	–	1.5318	–
[3]	–	–	17.51

C[S+](C)[O-] [dimethyl sulfoxide] + CC(C)CCO
x1 = 1
Conditions	refractive index	relative permittivity
[4]	1.4768	–
[5]	–	46.71

C1CCCCC1 [cyclohexane]
Conditions	mass density [kg/m3]	refractive index	relative permittivity
[1]	773.58	–	–
[2]	–	1.4234	–
[3]	–	–	2.02

CCCCCO [pentan-1-ol]
Conditions	mass density [kg/m3]	refractive index	relative permittivity
[1]	811.1	–	–
[2]	–	1.4082	–
[3]	–	–	15.12

CCCCCO [pentan-1-ol] + C[S+](C)[O-]
Conditions	refractive index, [4]	relative permittivity, [5]
x2 = 0	1.4082	15.12
x2 = 0.099	1.4109	16.27
x2 = 0.201	1.4164	18.04
x2 = 0.3	1.4217	20.24
x2 = 0.4	1.427	22.93
x2 = 0.5	1.4339	25.94
x2 = 0.6	1.44	29.38
x2 = 0.7	1.4488	33.14
x2 = 0.8	1.4573	37.33
x2 = 0.9	1.4675	41.95

CCCCCO [pentan-1-ol] + CC(=O)c1ccccc1
x2 = 0
Conditions	refractive index	relative permittivity
[4]	1.4082	–
[5]	–	15.12

CC(C)CCO [3-methylbutan-1-ol] + C[S+](C)[O-]
Conditions	refractive index, [4]	relative permittivity, [5]
x2 = 0	1.4048	14.96
x2 = 0.1	1.4071	15.92
x2 = 0.2	1.4118	17.56
x2 = 0.3	1.4168	19.79
x2 = 0.4	1.4227	22.45
x2 = 0.5	1.4305	25.51
x2 = 0.6	1.4385	28.95
x2 = 0.7	1.4459	32.76
x2 = 0.8	1.4549	37.01
x2 = 0.9	1.4651	41.68
